Read-outs that look alike come from different tables or passages of the source.
How the values were obtained:
mice [1] = assay: Maximal electroshock test (MES) in mice; type: in vivo; settings: for ED50: Mus musculus
Description: The maximal electroshock test (MES) is used commonly in the screening of anti-epileptic drugs in rodent models.
Animals and Apparatus: Male CD1 mice weighing 25 g were used. The procedure described by White et al. (White H. S., Woodhead J. H., Franklin M. R., Swinyard E. A., and Wolf H. H. Antiepileptic Drugs (1995) 4th ed: 99-110, Raven Press, Ltd., New York) was followed. An Ugo Basile electroconvulsive generator (Model ECT UNIT 7801) was used to deliver an electrical stimulus sufficient to produce a hindlimb tonic extensor response in at least 97% of control animals. The stimulus was delivered intra-aurally through clip electrodes in mice (0.7 s of a 40 mA shock, with a pulse train of 80 Hz having a pulse duration of 0.4 ms). The acute effect of compounds administered intraperitoneally (i.p.), subcutaneously (s.c.), intravenously (i.v.) or orally (p.o.) 5-120 minutes before MES induction were examined and compared with a vehicle control group. Ten mice were studied per group. Complete suppression of the hindlimb tonic extensor component of seizures was taken as evidence of anticonvulsant activity.
The compounds of the invention were administered p.o. or i.v., at the doses of 0.1-100 mg/kg.

mice [2] = assay: Formalin test; type: in vivo; settings: Mus musculus, po
Protocol: According to a modified protocol from Rosland et al. (Rosland J. H., Tjolsen A., Maehle B., Hole K. Pain (1990) 42: 235-242), mice were injected subcutaneously (s.c.) with 20 μl of 2.7% solution of formalin into the plantar surface of left hindpaw and placed immediately into clear PVC observation chambers (23×12×13 cm). Pain behaviour was quantified by counting the cumulative licking time (s) of the injected paw. Measurements were taken during the early phase (0-5 min) and late phase (20-40 min) after formalin injection (Tjolsen A., Berge O. G., Hunskaar S., Rosland J. H., Hole K. Pain (1992) 51: 5-17).
The test compound was administered p.o. or s.c. 5-45 minutes before formalin injection in a volume of 10 ml/kg body weight to groups of 10 mice per dose. Control group was treated with vehicle.

TTXs sodium channels = assay: TTXs-sodium channel influx assay (fluorescence, ND7/23 cell line); type: cell-based, rat; settings: ND7/23 cells, veratridine 100 μM; read-out: Na+ influx IC50
Protocol: ND7/23 rat dorsal root ganglion-derived cell line endogenously expresses a mixed population of TTXs sodium channels. These cells lack of TTXr sodium channels as shown by the absence of their respective transcripts.
ND7/23 cells were grown in DMEM supplemented with 10% FBS and 1 mM sodium piruvate. The cells were seeded at 50,000 cells/well on 96 poly-L-lysine-coated plates and further incubated for 18-24 h before use.
The Membrane Potential Kit Assay (Molecular Devices), based on a negatively charged fluorescent dye able to monitor changes in membrane potential caused by the sodium influx due to the channel opening, was used for the assay.
Cells were incubated with the dye loading for 30 minutes at 25° C. Then, 100 nM of the toxin Anemonia sulcata (used as enhancer of the channel opener response) alone or in the presence of TTX (as reference standard) or test compound were added for further 15 minutes.
The fluorescence (excitation:530 nm, emission: 565 nm wavelength) was measured before and after (40-45 s) the automated injection of the sodium channel opener veratridine (100 μM) using a Victor plate reader (Perkin Elmer).
The inhibition curves were calculated from 5 concentrations, each in triplicate, and the IC50 determined using linear regression analysis.

[3] = target: Na+ currents in rat cortical neurons; assay: Patch clamp evaluation of Na+ currents blockade in rat cortical neurons; type: cell-based; settings: for Ki: calculated from Kr and Kdep, read-out: Ki (apparent affinity for the inactivated state)
Protocol: Cortical neurons were prepared from embryonic Wistar rats (E17-E19). A female rat at date 17-19 of pregnancy was anesthetized and sacrificed. The fetuses (n=4-5) were dissected and placed in ice-cold Hank's solution (Hank's solution (Life tech.14170-088)+glucose 30%+Pen-Strep 100× (Life Tech. 15140-122) 100U-100 μg/ml and Hepes-NaOH 5 mM). The uterus and placenta were removed, the fetuses were decapitated and the heads were placed in ice-cold Hank's solution. Cells were counted and diluted in Neurobasal medium to a concentration of 400000 cells per poly-D-lysine 5 μg/ml treated Petri dish. Cortical neurons were used from day 6th till day 11th after plating, and once a week Neurobasal medium was changed. Experiments on cortical neurons were carried out using standard whole cell patch clamp methods (Hamill et al., Pfugers Arch., 1981 August, 391(12), 85-100). Membrane currents were recorded and filtered at 5 kHz with an Axon Axopatch 200B amplifier and data digitized with an Axon Digidata 1322A (Axon Instruments, CA, USA). Protocol playing and data acquisition were controlled online with Axon pClamp8 software. Measuring and reference electrodes were AgCl-Ag electrodes. A Sutter Instrument P-87 Puller (CA, USA) was used for pulling patch clamp pipettes with a resistance of 2-3 MΩ from Harward borosilicate glass tubes. Cells were continuously superfused with extracellular solutions, using a solution changer Biologic RSC-200. To test the effect of compounds on sodium currents in cortical neurons, cells were clamped at -90 mV, then a two step protocol was used to determine the voltage dependence of the block. […] Tonic block of resting and depolarized currents at a given drug concentration, was calculated as the difference between the peak Na^+ current in the control external bath solution and peak currents with the test substance divided by control peak. Drug concentration-inhibition curves were obtained by plotting tonic blocks in the resting and depolarized condition, versus drug concentrations. Dose-response curves were fitted to the tonic block data, according to the logistic equation: […] Control bath solution contained (mM): […] Internal pipette solution consisted of (mM): […] Compounds were dissolved as stock solutions (20 mM) in DMSO. They were diluted to the final concentrations in the external solution.

[4] = preconditioning potential -110 mV, read-out: IC50 resting (Kr)
[5] = preconditioning potential ~-50 mV, read-out: IC50 depolarized

Compound	ED50 (mice [1]; iv, mice, MES, i.v., read-out: MES ED50 mg/kg i.v.) [mg/kg]	ED50 (mice [1]; po, mice, MES, p.o., read-out: ED50 (mg/kg p.o.)) [mg/kg]	% protection 10 mg/kg p.o. (mice [1]; mice, MES, 10 mg/kg p.o.) [%]	ED50 (mice [2]) [mg/kg]	IC50 (TTXs sodium channels) [µM]	Ki [3] [µM]	IC50 [3, 4] [µM]	IC50 [3, 5] [µM]	ED50 (mice [1]; iv, read-out: MES ED50 mg/kg i.v.) [mg/kg]	IC50 ([3]; resting condition, figure in parentheses after >100, read-out: IC50 resting (Kr), value in parentheses) [µM]
CCCCOc1cccc(CCNCC(=O)N(C)C)c1.Cl [2-[2-(3-Butoxyphenyl)-ethylamino]-N,N-dimethylacetamide hydrochloride]	0.2	4.3	100	14.9	1.5	0.4	25	0.8	–	–
C[C@H](NCc1ccc(OCc2ccccc2F)cc1)C(N)=O [ralfinamide, (S)-(+)-2-[4-(2-fluorobenzyloxy)-benzylamino]-propanamide, reference compound]	–	–	–	29.3	9.5	4.7	> 100	9	2.7	213

Source: patent US9051240B2, “Substituted 2-[2-(phenyl) ethylamino] alkaneamide derivatives and their use as sodium and/or calcium channel modulators” (Newron Pharmaceuticals S.P.A., priority 2007, dated 2015)
